Data published in patent publication EP0381141B1, “Novel aryl- or heteroaryl-1-alkyl-pyrrole-2-carboxylic acid compounds useful in treating interleukin-1 mediated conditions” (MERRELL DOW PHARMACEUTICALS INC., priority 1989, dated 1990).

Tested on: Interleukin-1 Secretion by Macrophages
Test: Ex vivo inhibition of interleukin-1 secretion by macrophages (LPS-stimulated peritoneal cells from orally dosed mice; IL-1 measured by thymocyte H3-thymidine incorporation)
Assay type: in vivo
Conditions: p.o. 3 times (40, 24 and 16 hours prior to sacrifice); for Interleukin-1 units/ml Mean ± Sem(n): 100 mg/kg, macrophage culture supernatant, unit = reciprocal of the dilution required to give 50% of maximal H3-thymidine incorporation; for inhibition at 100 mg/kg: Mus musculus, Macrophage, po, versus control group
Procedure: The interleukin-1 inhibitory properties of the compounds of this invention can readily be determined by standard and well known procedures.
Peritoneal cells from mice which had been orally dosed with 100 mg/kg of test compound 40, 24 and 16 hours prior to sacrifice, were collected by lavage, pooled and washed by centrifugation. The cells were resuspended in RPMI-1640 medium containing antibiotics, and plated. After 1 hour of incubation at 37°C, non-adherent cells were removed, and RPMI, with or without lipopolysaccharide, was added to each well. The presence of lipopolysaccharide will induce interleukin-1 secretion by macrophages. After incubation for 6 hours, the culture supernatant was collected, filtered and stored until assayed.
Mouse thymocytes were suspended in RPMI enriched with fetal bovine serum and 2-mercaptoethanol. Aliquots of cell suspension were incubated with an equal volume of dilutions of macrophage culture supernatant in the presence of a suboptimal amount of phytohemagglutinin for 72 hours in flat-bottom plates. Microcultures were pulsed with H³-thymidine for the last 16 hours and were harvested on glass fiber filters. H₃-thymidine will be incorporated into the DNA of actively proliferating cells. The radioactivity was determined by liquid scintillation counting, and interleukin-1 activity was expressed in units defined as the reciprocal of the dilution required to give 50% of maximal H³-thymidine incorporation.
Compounds were administered at a dosage of 100 mg/kg, p.o. 3 times (40, 24 and 16 hours prior to sacrifice). Compound 1: 1-(2-furanylmethyl)-1H-pyrrole-2-carboxylic acid Compound 2: 1-(phenylmethyl)-1Hpyrrole-2 -carboxylic acid Compound 3: 1-([1,1'-biphenyl]-4-ylmethyl)-1H -pyrrole-2-carboxylic acid

SMILES	Interleukin-1 units/ml Mean ± Sem(n)	inhibition at 100 mg/kg [%]
O=C(O)c1cccn1Cc1ccco1 [Compound 1, 1-(2-furanylmethyl)-1H-pyrrole-2-carboxylic acid]	10.2 +/- 3.4 units/ml	93.2
O=C(O)c1cccn1Cc1ccc(-c2ccccc2)cc1 [Compound 3, 1-([1,1'-Biphenyl]-4-ylmethyl)-1H-Pyrrole-2-Carboxylic Acid]	26.6 +/- 3.9 units/ml	94.9
O=C(O)c1cccn1Cc1ccccc1 [Compound 2, 1-(phenylmethyl)-1H-pyrrole-2-carboxylic acid]	171.3 +/- 7.9 units/ml	67.4
